# pEC50, pIC50: −log10 of the molar value.
# How the values were obtained:
# [1] = molecular target: purified recombinant human GAC (GLS1) (Homo sapiens (Human), UniProt O94925); assay: GLS1 Enzymatic Activity Assay (dual-coupled enzymatic assay, resorufin/Amplex UltraRed readout); format: biochemical;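 further: glutamate from GAC coupled via glutamate oxidase and peroxidase to resorufin, read as fluorescence (ex 530, em 590 nm) kinetically or at 20 min, four-parameter logistic IC50 fit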
# [2] = test system: A549 cells; assay: Proliferation Assay (A549 viability, Cell Titer Fluor, 72 hours); format: cell-based; conditions: Homo sapiens, A549, 72 h
# Method in brief: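 Cell Titer Fluor fluorescence after 72 h compound treatment (0.5% DMSO, 37 °C, 5% CO2) of A549 cells plated 24 h earlier at 1000/well. Four-parameter logistic fitting gave IC50.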
# purified recombinant human GAC (GLS1), sequence (O94925 other isoform, or with tags, fused parts or gaps): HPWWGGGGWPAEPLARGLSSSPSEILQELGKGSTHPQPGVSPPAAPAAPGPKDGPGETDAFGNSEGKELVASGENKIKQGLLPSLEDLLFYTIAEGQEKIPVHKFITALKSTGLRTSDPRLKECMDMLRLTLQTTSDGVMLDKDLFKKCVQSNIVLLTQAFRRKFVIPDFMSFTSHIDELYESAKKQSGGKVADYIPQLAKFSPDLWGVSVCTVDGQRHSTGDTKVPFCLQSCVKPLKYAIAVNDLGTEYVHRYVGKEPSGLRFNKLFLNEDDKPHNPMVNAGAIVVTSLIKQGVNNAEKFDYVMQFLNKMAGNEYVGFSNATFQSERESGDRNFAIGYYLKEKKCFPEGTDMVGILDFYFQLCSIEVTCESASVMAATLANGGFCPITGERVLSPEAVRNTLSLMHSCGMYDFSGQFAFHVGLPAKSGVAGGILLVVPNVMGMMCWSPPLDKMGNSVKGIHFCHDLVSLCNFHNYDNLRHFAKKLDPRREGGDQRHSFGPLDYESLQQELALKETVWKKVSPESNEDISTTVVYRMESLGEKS
smiles,measurement,setting,value
"O=C(CN1CC(F)C1)Nc1cn(CCCCn2cc(C(=O)NCc3cc(OC(F)(F)F)ccc3F)nn2)nn1 [Example 350, N-{[2-fluoro-5-(trifluoromethoxy)phenyl]methyl}-1-(4-{4-[2-(3-fluoroazetidin-1-yl)acetamido]-1H-1,2,3-triazol-1-yl}butyl)-1H-1,2,3-triazole-4-carboxamide]",pIC50,[1],6.30 to 7.00
same,pEC50,[2],6.30 to 7.00
"O=C(CN1CC(F)(F)C1)Nc1cn(CC(F)CCn2cc(C(=O)NCc3cc(OC(F)(F)F)ccc3F)nn2)nn1 (stereo not drawn) [Example 390, 1-(4-{4-[2-(3,3-difluoroazetidin-1-yl)acetamido]-1H-1,2,3-triazol-1-yl}-3-fluorobutyl)-N-{[2-fluoro-5-(trifluoromethoxy)phenyl]methyl}-1H-1,2,3-triazole-4-carboxamide]",pIC50,[1],> 7.00
same,pEC50,[2],> 7.00
"C[C@H](NC(=O)c1cn(CCC(F)Cn2cc(C(=O)NCc3cc(C(F)(F)F)ccn3)nn2)nn1)c1ccccc1 (stereo partly drawn) [Example 458, 1-[2-fluoro-4-(4-{[(1S)-1-phenylethyl]carbamoyl}-1H-1,2,3-triazol-1-yl)butyl]-N-{[4-(trifluoromethyl)pyridin-2-yl]methyl}-1H-1,2,3-triazole-4-carboxamide]",pIC50,[1],6.30 to 7.00
same,pEC50,[2],6.30 to 7.00
CNC(=O)c1cn(CCCCc2ccc(NC(=O)Cc3cccc(CNC(=O)OC(C)(C)C)c3)nn2)nn1 [Example 172],pIC50,[1],> 7.00
same,pEC50,[2],> 7.00
O=C(NCc1cc(C(F)(F)F)ccn1)c1cn(CCCCn2cc(C(=O)NCC3COC3)nn2)nn1 [Example 87],pIC50,[1],5.30 to 6.30
same,pEC50,[2],< 5.30
"CNC(=O)c1cn(CCCCc2ccc(NC(=O)Cc3cccc(Br)c3)nn2)nn1 [Example 542, 1-(4-{6-[2-(3-bromophenyl)acetamido]pyridazin-3-yl}butyl)-N-methyl-1H-1,2,3-triazole-4-carboxamide]",pIC50,[1],> 7.00
same,pEC50,[2],6.30 to 7.00
"O=C(Cc1cc(OC(F)(F)F)ccc1F)Nc1cn(CCCCn2cc(C(=O)NCc3cc(C(F)(F)F)ccn3)nn2)nn1 [Example 413, 1-[4-(4-{2-[2-fluoro-5-(trifluoromethoxy)phenyl]acetamido}-1H-1,2,3-triazol-1-yl)butyl]-N-{[4-(trifluoromethyl)pyridin-2-yl]methyl}-1H-1,2,3-triazole-4-carboxamide]",pIC50,[1],> 7.00
same,pEC50,[2],> 7.00
"Cc1ccc(CNC(=O)c2cn(CCC(F)Cn3cc(NC(=O)Cc4ccccn4)nn3)nn2)cn1 (stereo not drawn) [Example 364, 1-(3-fluoro-4-{4-[2-(pyridin-2-yl)acetamido]-1H-1,2,3-triazol-1-yl}butyl)-N-[(6-methylpyridin-3-yl)methyl]-1H-1,2,3-triazole-4-carboxamide]",pIC50,[1],6.30 to 7.00
same,pEC50,[2],5.30 to 6.30
"O=C(Cc1cccc(OC(F)(F)F)c1)Nc1cn(CC(F)CCn2cc(C(=O)NCc3ncccc3F)nn2)nn1 (stereo not drawn) [Example 341, 1-[3-fluoro-4-(4-{2-[3-(trifluoromethoxy)phenyl]acetamido}-1H-1,2,3-triazol-1-yl)butyl]-N-[(3-fluoropyridin-2-yl)methyl]-1H-1,2,3-triazole-4-carboxamide]",pIC50,[1],> 7.00
same,pEC50,[2],6.30 to 7.00
"O=C(NCc1cc(OC(F)(F)F)ccc1F)c1cn(CCC(F)Cn2cc(C(=O)NCc3cncc(C(F)(F)F)c3)nn2)nn1 (stereo not drawn) [Example 479, 1-{2-fluoro-4-[4-({[2-fluoro-5-(trifluoromethoxy)phenyl]methyl}carbamoyl)-1H-1,2,3-triazol-1-yl]butyl}-N-{[5-(trifluoromethyl)pyridin-3-yl]methyl}-1H-1,2,3-triazole-4-carboxamide]",pIC50,[1],> 7.00
same,pEC50,[2],> 7.00
"Cc1ccc(CNC(=O)c2cn(CC(F)CCn3cc(C(=O)NCc4cccc(OC(F)(F)F)c4)nn3)nn2)cn1 (stereo not drawn) [Example 430, 1-{2-fluoro-4-[4-({[3-(trifluoromethoxy)phenyl]methyl}carbamoyl)-1H-1,2,3-triazol-1-yl]butyl}-N-[(6-methylpyridin-3-yl)methyl]-1H-1,2,3-triazole-4-carboxamide]",pIC50,[1],> 7.00
same,pEC50,[2],> 7.00
"O=C(NCc1cc(C(F)(F)F)ccn1)c1cn(CCC(F)Cn2cc(C(=O)NCc3cccc(OC(F)(F)F)c3)nn2)nn1 (stereo not drawn) [Example 439, 1-{3-fluoro-4-[4-({[3-(trifluoromethoxy)phenyl]methyl}carbamoyl)-1H-1,2,3-triazol-1-yl]butyl}-N-{[4-(trifluoromethyl)pyridin-2-yl]methyl}-1H-1,2,3-triazole-4-carboxamide]",pIC50,[1],> 7.00
same,pEC50,[2],> 7.00
"CNC(=O)c1cn(CCCCc2ccc(NC(=O)Cc3cccc(C4=CCN(C(=O)OC(C)(C)C)CC4)c3)nn2)nn1 [Example 212, tert-butyl 4-(3-(2-((6-(4-(4-(methylcarbamoyl)-1H-1,2,3-triazol-1-yl)butyl)pyridazin-3-yl)amino)-2-oxoethyl)phenyl)-3,6-dihydropyridine-1(2H)-carboxylate]",pIC50,[1],> 7.00
same,pEC50,[2],> 7.00
"O=C(NCc1cccc(OC(F)(F)F)c1)c1cn(CCCCc2ccc(NC(=O)C3CC3)nn2)nn1 [Example 176, 1-[4-(6-cyclopropaneamidopyridazin-3-yl)butyl]-N-{[3-(trifluoromethoxy)phenyl]methyl}-1H-1,2,3-triazole-4-carboxamide]",pIC50,[1],> 7.00
same,pEC50,[2],6.30 to 7.00
"O=C(Cc1cc(OC(F)(F)F)ccc1F)Nc1cn(CCCCn2cc(C(=O)NCc3ncccc3F)nn2)nn1 [Example 382, 1-[4-(4-{2-[2-fluoro-5-(trifluoromethoxy)phenyl]acetamido} 1H-1,2,3-triazol-1-yl)butyl]-N-[(3-fluoropyridin-2-yl)methyl]-1H-1,2,3-triazole-4-carboxamide]",pIC50,[1],> 7.00
same,pEC50,[2],6.30 to 7.00
"CNC(=O)c1cn(CCC(F)Cn2cc(C(=O)NCc3cncc4ccccc34)nn2)nn1 (stereo not drawn) [Example 171, 1-(3-fluoro-4-{4-[(isoquinolin-4-ylmethyl)carbamoyl]-1H-1,2,3-triazol-1-yl}butyl)-N-methyl-1H-1,2,3-triazole-4-carboxamide]",pIC50,[1],6.30 to 7.00
same,pEC50,[2],5.30 to 6.30
"O=C(NCc1ccccc1F)c1cn(CCC(F)Cn2cc(C(=O)NCc3cc(C(F)(F)F)ccn3)nn2)nn1 (stereo not drawn) [Example 454, 1-[2-fluoro-4-(4-{[(2-fluorophenyl)methyl]carbamoyl}-1H-1,2,3-triazol-1-yl)butyl]-N-{[4-(trifluoromethyl)pyridin-2-yl]methyl}-1H-1,2,3-triazole-4-carboxamide]",pIC50,[1],> 7.00
same,pEC50,[2],6.30 to 7.00
"O=C(CC1CC1)Nc1cn(CCCCn2cc(C(=O)NCc3cccc(OC(F)(F)F)c3)nn2)nn1 [Example 276, 1-{4-[4-(2-cyclopropylacetamido)-1H-1,2,3-triazol-1-yl]butyl}-N-{[3-(trifluoromethoxy)phenyl]methyl}-1H-1,2,3-triazole-4-carboxamide]",pIC50,[1],6.30 to 7.00
same,pEC50,[2],6.30 to 7.00
"CNC(=O)c1cn(CCCCc2ccc(NC(=O)Cc3cc(C4CCOCC4)ccn3)nn2)nn1 [Example 208, N-methyl-1-(4-(6-(2-(4-(tetrahydro-2H-pyran-4-yl)pyridin-2-yl)acetamido)pyridazin-3-yl)butyl)-1H-1,2,3-triazole-4-carboxamide]",pIC50,[1],> 7.00
same,pEC50,[2],6.30 to 7.00
"O=C(NCc1cc(C(F)(F)F)ccn1)c1cn(CCC(F)Cn2cc(C(=O)NCc3cc(OC(F)(F)F)ccc3F)nn2)nn1 (stereo not drawn) [Example 432, 1-{2-fluoro-4-[4-({[4-(trifluoromethyl)pyridin-2-yl]methyl}carbamoyl)-1H-1,2,3-triazol-1-yl]butyl}-N-{[-fluoro-5-(trifluoromethoxy)phenyl]methyl}-1H-1,2,3-triazole-4-carboxamide]",pIC50,[1],> 7.00
same,pEC50,[2],> 7.00
"O=C(NCC1CCOCC1)c1cn(CCC(F)Cn2cc(C(=O)NCc3cc(C(F)(F)F)ccn3)nn2)nn1 (stereo not drawn) [Example 457, 1-(2-fluoro-4-{4-[(oxan-4-ylmethyl)carbamoyl]-1H-1,2,3-triazol-1-yl}butyl)-N-{[4-(trifluoromethyl)pyridin-2-yl]methyl}-1H-1,2,3-triazole-4-carboxamide]",pIC50,[1],5.30 to 6.30
same,pEC50,[2],5.30 to 6.30
